Source: publication PMC9855432, “Novel Set of Diarylmethanes to Target Colorectal Cancer: Synthesis, In Vitro and In Silico Studies” (Biomolecules, 2022)

Key:
[1] = system: human CRC HT-29 cells; assay: MTT cell viability / IC50 on HT-29 cells; type: cell-based; conditions: for IC50: MTT assay, 1 to 50 µM, mean ± SEM of at least three experiments; for viability at 50 µM: HT-29; for viability at 50 µM / Cell viability (%) HT-29: MTT screening, 50 µM
Protocol: (§1) Cells were grown in DMEM medium for HT-29 cells and RPMI 1640 medium for HCT116 cells, supplemented with 10% FBS, 1% L-glutamine and 100 U/mL penicillin and 100 μg/mL streptomycin. Cultures were maintained in a humidified atmosphere containing 5% CO2 at 37 °C. Stock solutions of each compound were used at 10^−2 M in DMSO and then diluted in culture medium to obtain the appropriate final concentrations. […] L929 cell line is a non-cancer cell line derived from L-strain (L cells) and has been grown in the Peptinov laboratory for years. L929 cells are murine adherent fibroblasts from subcutaneous connective tissue (areolar and adipose tissues). Cells were grown in DMEM medium supplemented with 10% FBS, 1% L-glutamine and 100 U/mL penicillin and 100 µg/mL streptomycin and maintained in a humidified incubator at 37 °C, 5% CO2. When confluence is at 80%, cells are trypsinyzed for 3 min and diluted in fresh medium. Each batch of cells is kept for 15 passages before being discarded and a new batch thawed.
(§2) All compounds were tested on the metabolic activity of the cells using the MTT colorimetric assay. Briefly, cells were seeded in 96-well microplates at 8 × 10^3 cells/well for human CRC HT-29 cells and 5 × 10^3 cells/well for human CRC HCT116 cells and grown for 24 h in appropriate culture medium prior to exposure or not to compounds (6–27) with concentration ranges from 1 to 50 µM. After 48 h of treatment, MTT (5 g/L in Phosphate-buffered saline (PBS)) was added and incubated for another 3 h. The MTT was then removed from the wells and 100 µL/well of DMSO were added to dissolve formazan. The optical density was detected with a microplate reader (Thermoscientific, Multiskan FC) at 550 nm and cell viability was expressed as a percentage of each treatment condition compared to control cells. IC50 values were calculated for all compounds from the dose–response curve.

[2] = system: human CRC HCT116 cells; assay: MTT cell viability / IC50 on HCT116 cells; type: cell-based; conditions: for IC50: MTT assay, 1 to 50 µM, mean ± SEM of at least three experiments; for viability at 50 µM: HCT-116
Protocol: as §1, §2

[3] = system: PARP; assay: Western blot of cleaved PARP in HT-29 cells; type: cell-based, human
Protocol: Human CRC HT-29 and HCT116 cells were treated or not with the determined IC50 values of compounds (12a, 10a, 10b) for indicated times (6, 12, 24 and 48h) and then harvested with trypsin. For total protein extraction, collected samples of each condition were washed with PBS. Then, the total cell pool was centrifuged at 200× g for 5 min at 4 °C and homogenized in RIPA lysis buffer (50 mM HEPES, pH 7.5, 150 mM NaCl, 1% sodium deoxycholate, 1% NP-40, 0.1% Sodium Dodecyl Sulfate (SDS), […] of aprotinin) containing protease inhibitors according to the manufacturer’s instructions as previously described. Proteins (60 µg) were separated on 12.5% SDS-PAGE gels and transferred to polyvinylidene difluoride (PVDF) membranes. Membranes were probed with respective human antibodies against caspase-3, cleaved caspase-3, PARP and Akt, ERK, p38 MAP Kinases and its phosphorylated forms according to the manufacturer’s instructions. After incubation with appropriate secondary antibodies, blots were developed using the «Immobilon Western » substrate following the manufacturer’s protocol and G:BOX system (Syngene, Ozyme). Membranes were then reblotted with human anti-β-actin used as a loading control.
Cells were treated or not for 24 and 48 h, with IC50 values of compounds 10a, 10b and 12a, for human CRC HT-29 cells and compounds 10a and 12a for human CRC HCT116 cells. Total lysates were collected, and expression of apoptosis-related proteins was determined by Western blot analysis.

[4] = system: human CRC HT-29 cells; assay: DNA fragmentation, Cell Death Detection ELISA, HT-29; type: cell-based; conditions: treated at IC50, n-fold compared to control
Protocol: Human CRC HT-29 and HCT116 cells were treated or not with the determined IC50 values of compounds (12a, 10a, 10b) for 24 and 48 h and then harvested with trypsin. Histone release from the nucleus during apoptosis was analyzed using the Cell Death Detection ELISA^PLUS as previously described. Cytosol extracts from 10^5 cells of each condition were obtained and DNA fragmentation was measured according to the manufacturer’s protocol. Results were reported as n-fold compared to control cells.

[5] = Homo sapiens, 50 µM, 48 h, MTT screening

SMILES: COc1ccc(C(=Cc2ccccc2)c2ccccn2)cc1 [Compound 6a, 2-(1-(4-méthoxyphenyl) -2-phenylvinyl) pyridine]
- IC50 ([1]; Homo sapiens, HT-29, 48 h): 30.3 ± 1.78 µM
- viability at 50 µM ([1]; Homo sapiens, 48 h): < 50%
- IC50 ([2]; Homo sapiens, HCT-116, 48 h): 35.6 ± 2.08 µM
- viability at 50 µM [2, 5]: < 50%

SMILES: COc1ccc(C(=Cc2ccccc2)c2ccccn2)cc1 [Compound 6b, 2-(1-(4-méthoxyphenyl) -2-phenylvinyl) pyridine]
- IC50 ([1]; 48 h): > 50 µM
- IC50 ([2]; 48 h): > 50 µM

SMILES: COc1ccc(C(=Cc2ccc(C)cc2)c2ccccn2)cc1 [Compound 7a, 2-(1-(4-methoxyphenyl)-2-(p-tolyl)vinyl)pyridine]
- IC50 ([1]; Homo sapiens, HT-29, 48 h): 35 ± 1.99 µM
- viability at 50 µM ([1]; Homo sapiens, 48 h): < 50%
- IC50 ([2]; Homo sapiens, HCT-116, 48 h): > 50 µM

SMILES: COc1ccc(C(=Cc2ccc(C)cc2)c2ccccn2)cc1 [Compound 7b, 2-(1-(4-methoxyphenyl)-2-(p-tolyl)vinyl)pyridine]
- Cell viability (%) HT-29 ([1]; 48 h): < 50%
- IC50 ([1]; 48 h): 36.2 ± 4.56 µM
- IC50 ([2]; 48 h): > 50 µM

SMILES: COc1ccc(C=C(c2ccc(OC)cc2)c2ccccn2)cc1 [Compound 8a, 2-(1,2-bis(4-methoxyphenyl)vinyl)pyridine]
- IC50 ([1]; Homo sapiens, HT-29, 48 h): 43.5 ± 4.91 µM
- viability at 50 µM ([1]; Homo sapiens, 48 h): < 50%
- IC50 ([2]; Homo sapiens, HCT-116, 48 h): > 50 µM

SMILES: COc1ccc(C(=Cc2ccc(C(C)C)cc2)c2ccccn2)cc1 [Compound 9a, 2-(2-(4-isopropylphenyl)-1-(4-methoxyphenyl)vinyl)pyridine]
- IC50 ([1]; 48 h): > 50 µM
- IC50 ([2]; 48 h): > 50 µM

SMILES: COc1ccc(C(=Cc2ccc(C(C)C)cc2)c2ccccn2)cc1 [Compound 9b, 2-(2-(4-isopropylphenyl)-1-(4-methoxyphenyl)vinyl)pyridine]
- IC50 ([1]; Homo sapiens, HT-29, 48 h): 34.9 ± 0.78 µM
- viability at 50 µM ([1]; Homo sapiens, 48 h): < 50%
- IC50 ([2]; Homo sapiens, HCT-116, 48 h): > 50 µM

SMILES: COc1ccc(C(=Cc2ccc(C(C)(C)C)cc2)c2ccccn2)cc1 [Compound 10b, 2-(2-(4-(tert-butyl)phenyl)-1-(4-methoxyphenyl)vinyl)pyridine]
- cleaved PARP expression ([3]; HT-29, treated at IC50, 24 h): never been expressed
- cleaved PARP expression ([3]; HT-29, treated at IC50, 48 h): never been expressed
- HT-29 DNA Fragmentation (Fold) ([4]; 24 h): 1.24 Fold
- HT-29 DNA Fragmentation (Fold) ([4]; 48 h): 0.84 Fold
- Cell viability (%) HT-29 ([1]; 48 h): < 50%
- IC50 ([1]; 48 h): 25.2 ± 1.28 µM
- IC50 ([2]; 48 h): > 50 µM

SMILES: COc1ccc(C(=Cc2ccc(O)cc2)c2ccccn2)cc1 [Compound 11b, 4-(2-(4-methoxyphenyl)-2-(pyridin-2-yl)vinyl)phenol]
- IC50 ([1]; Homo sapiens, HT-29, 48 h): > 50 µM
- IC50 ([2]; Homo sapiens, HCT-116, 48 h): > 50 µM

SMILES: COc1ccc(C(=Cc2ccc(C(F)(F)F)cc2)c2ccccn2)cc1 [Compound 12b, 2-(1-(4-methoxyphenyl)-2-(4-(trifluoromethyl)phenyl)vinyl)pyridine]
- IC50 ([1]; 48 h): > 50 µM
- IC50 ([2]; 48 h): > 50 µM

SMILES: COc1ccc(C(=Cc2ccc(Br)cc2)c2ccccn2)cc1 [Compound 13a, 2-(2-(4-bromophenyl)-1-(4-methoxyphenyl)vinyl)pyridine]
- viability at 50 µM ([1]; Homo sapiens, 48 h): < 50%
- IC50 ([1]; 48 h): 24 ± 2.65 µM
- Cell viability (%) HCT116 ([2]; 50 µM, 48 h, MTT screening): < 50%
- IC50 ([2]; 48 h): 36.6 ± 2.94 µM

SMILES: COc1ccc(C(=Cc2ccc(Br)cc2)c2ccccn2)cc1 [Compound 13b, 2-(2-(4-bromophenyl)-1-(4-methoxyphenyl)vinyl)pyridine]
- IC50 ([1]; 48 h): > 50 µM
- IC50 ([2]; Homo sapiens, HCT-116, 48 h): < 35 µM
- viability at 50 µM [2, 5]: < 50%
- IC50 ([2]; 48 h): 26.1 ± 2.08 µM

SMILES: COc1ccc(C(=Cc2ccc(Cl)cc2)c2ccccn2)cc1 [Compound 14a, 2-(2-(4-chlorophenyl)-1-(4-methoxyphenyl)vinyl)pyridine]
- IC50 ([1]; Homo sapiens, HT-29, 48 h): < 30 µM
- viability at 50 µM ([1]; Homo sapiens, 48 h): < 50%
- IC50 ([1]; 48 h): 28.5 ± 1.82 µM
- IC50 ([2]; Homo sapiens, HCT-116, 48 h): 42.7 ± 2.24 µM
- viability at 50 µM [2, 5]: < 50%
